# From patent US12209102B2, “Heterocyclic compounds and uses thereof” (Kumquat Biosciences Inc., priority 2022, dated 2025)
# pIC50: −log10 of the molar value.
# Experiments:
# [1] = molecular target: T1, K-Ras G12V (Homo sapiens, UniProt P01116, G12V); assay: HTRF resonance energy transfer assay, K-Ras G12V / SOS1 interaction; assay type: biochemical; details: HTRF assay of Example 5; read-out: IC50 against K-Ras G12V
# T1 construct: made in house; host or cells: E. coli BL21 (DE3)
# Summary of the method: (§1)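 Read-out: HTRF 665/620 nm ratio (excitation 337 nm) after roughly 10 min or longer incubation, used to derive IC50. Donor anti-GST-Eu on GST-K-Ras; acceptor anti-6His-XL665 on His-hSOS1. Duplicate dose series from 10 μM down to 0.01 μM.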
# [2] = test system: GP2D cells; assay: Ras cellular assay, growth of cells with K-Ras G12D mutation (CellTiter-Glo); assay type: cell-based; details: cell growth, Example 9, G12D mutation, read-out: IC50 against GP2D cells
# [3] = test system: SW620 cells; assay: Ras cellular assay, growth of cells with K-Ras G12V mutation (CellTiter-Glo); assay type: cell-based; details: Homo sapiens, SW-620; cell growth, Example 9, G12V mutation; read-out: IC50 against SW620 cells
# Summary of the method: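 SW620 (K-Ras G12V) cells, e.g. 800/well in RPMI-1640 with 10% heat-inactivated FBS on standard or ultra-low attachment plates, were dosed the day after plating with e.g. a 10-point 3-fold series. Viability by CellTiter-Glo luminescence about 6 days later; IC50 from four-parameter fit.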
# [4] = test system: A549 cells; assay: Ras cellular assay, growth of cells with K-Ras G12S mutation (CellTiter-Glo); assay type: cell-based; details: Homo sapiens, cell growth, Example 9, G12S mutation, read-out: IC50 against A549 cells
# Summary of the method: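 A549 cells (K-Ras G12S) in RPMI-1640 with 10% heat-inactivated FBS, seeded e.g. 800 per well in standard or ultra-low-attachment 384-well plates, treated next day with a dilution series (e.g. 10-point, 3-fold). Viability by CellTiter-Glo luminescence about 6 days later; IC50 from four-parameter fit.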
# [5] = molecular target: T2, K-Ras WT (Homo sapiens, UniProt P01116); assay: HTRF resonance energy transfer assay, K-Ras WT / SOS1 interaction; assay type: biochemical; details: HTRF assay of Example 5; read-out: IC50 against K-Ras WT
# T2 construct: made in house; host or cells: E. coli BL21 (DE3)
# Summary of the method: as §1
# [6] = molecular target: T3, K-Ras G12D (Homo sapiens, UniProt P01116, G12D); assay: HTRF resonance energy transfer assay, K-Ras G12D / SOS1 interaction; assay type: biochemical; details: HTRF assay of Example 5; read-out: IC50 against K-Ras G12D
# T3 construct: made in house; host or cells: E. coli BL21 (DE3)
# Summary of the method: as §1
# [7] = molecular target: T4, K-Ras G12S (Homo sapiens, UniProt P01116, G12S); assay: HTRF resonance energy transfer assay, K-Ras G12S / SOS1 interaction; assay type: biochemical; details: HTRF assay of Example 5; read-out: IC50 against K-Ras G12S
# T4 construct: made in house; host or cells: E. coli BL21 (DE3)
# Summary of the method: as §1
# T4 sequence (P01116 1-188 isoform P01116-2 G12S): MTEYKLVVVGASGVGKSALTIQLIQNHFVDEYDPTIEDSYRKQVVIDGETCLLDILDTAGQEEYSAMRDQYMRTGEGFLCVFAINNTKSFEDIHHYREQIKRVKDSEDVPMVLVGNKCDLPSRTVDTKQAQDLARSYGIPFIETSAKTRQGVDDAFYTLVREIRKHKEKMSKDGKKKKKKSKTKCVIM
# T3 sequence (P01116 1-188 isoform P01116-2 G12D): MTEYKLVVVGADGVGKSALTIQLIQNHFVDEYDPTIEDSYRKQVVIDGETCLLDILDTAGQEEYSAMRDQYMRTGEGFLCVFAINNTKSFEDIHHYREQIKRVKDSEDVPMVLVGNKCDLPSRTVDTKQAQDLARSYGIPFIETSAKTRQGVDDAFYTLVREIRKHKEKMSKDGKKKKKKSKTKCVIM
# T2 sequence (P01116 1-188 isoform P01116-2): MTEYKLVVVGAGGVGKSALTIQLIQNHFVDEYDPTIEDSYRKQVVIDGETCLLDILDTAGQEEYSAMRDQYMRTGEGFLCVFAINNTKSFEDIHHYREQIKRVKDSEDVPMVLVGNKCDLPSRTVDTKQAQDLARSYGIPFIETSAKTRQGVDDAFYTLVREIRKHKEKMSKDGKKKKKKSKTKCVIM
# T1 sequence (P01116 1-188 isoform P01116-2 G12V): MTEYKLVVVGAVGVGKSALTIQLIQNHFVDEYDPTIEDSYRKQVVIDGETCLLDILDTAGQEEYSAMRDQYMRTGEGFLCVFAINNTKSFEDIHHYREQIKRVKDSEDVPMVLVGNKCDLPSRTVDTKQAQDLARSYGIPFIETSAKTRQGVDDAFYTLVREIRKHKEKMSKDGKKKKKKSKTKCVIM
SMILES,pIC50 [1],pIC50 [3],pIC50 [4],pIC50 [5],pIC50 [6],pIC50 [7],pIC50 [2]
"COCC(C)N1CCOc2c(Cl)c(-c3ccc(F)c4sc(N)c(C#N)c34)c(F)c3nc(OC[C@@]45CCCN4C[C@H](F)C5)nc1c23 (stereo partly drawn) [Compound 670, 2-amino-4-(8-chloro-10-fluoro-2-(((2R,7aS)-2-fluorotetrahydro-1H-pyrrolizin-7a(5H)-yl)methoxy)-4-(1-methoxypropan-2-yl)-5,6-dihydro-4H-[1,4]oxazepino[5,6,7-de]quinazolin-9-yl)-7-fluorobenzo[b]thiophene-3-carbonitrile]",> 7.00,> 5.30,> 5.30,> 7.00,> 7.00,> 7.00,> 6.30
"N#Cc1c(N)sc2c(F)ccc(-c3c(Cl)c4c5c(nc(OC[C@@]67CCCN6C[C@H](F)C7)nc5c3F)N(CC3(C#N)CC3)CCO4)c12 [Compound 798, 2-amino-4-(8-chloro-4-((1-cyanocyclopropyl)methyl)-10-fluoro-2-(((2R,7aS)-2-fluorotetrahydro-1H-pyrrolizin-7a(5H)-yl)methoxy)-5,6-dihydro-4H-[1,4]oxazepino[5,6,7-de]quinazolin-9-yl)-7-fluorobenzo[b]thiophene-3-carbonitrile]",> 7.00,> 5.30,> 5.30,> 7.00,> 7.00,> 7.00,> 6.30
"N#Cc1c(N)sc2c(F)ccc(-c3c(Cl)c4c5c(nc(OC[C@@]67CCCN6C[C@H](F)C7)nc5c3F)N(CC(F)(F)F)CCO4)c12 [Compound 721, 2-amino-4-(8-chloro-10-fluoro-2-(((2R,7aS)-2-fluorotetrahydro-1H-pyrrolizin-7a(5H)-yl)methoxy)-4-(2,2,2-trifluoroethyl)-5,6-dihydro-4H-[1,4]oxazepino[5,6,7-de]quinazolin-9-yl)-7-fluorobenzo[b]thiophene-3-carbonitrile]",> 7.00,> 5.30,> 5.30,> 7.00,> 7.00,> 7.00,> 6.30
"N#Cc1c(N)sc2c(F)ccc(-c3c(Cl)c4c5c(nc(OC[C@@]67CCCN6C[C@H](F)C7)nc5c3F)N(C3CCOC3)CCO4)c12 (stereo partly drawn) [Compound 688, 2-amino-4-(8-chloro-10-fluoro-2-(((2R,7aS)-2-fluorotetrahydro-1H-pyrrolizin-7a(5H)-yl)methoxy)-4-(tetrahydrofuran-3-yl)-5,6-dihydro-4H-[1,4]oxazepino[5,6,7-de]quinazolin-9-yl)-7-fluorobenzo[b]thiophene-3-carbonitrile]",> 7.00,> 5.30,> 5.30,> 7.00,> 7.00,> 7.00,> 6.30
"N#Cc1c(N)sc2c(F)ccc(-c3c(Cl)c4c5c(nc(OC[C@@]67CCCN6C[C@H](F)C7)nc5c3F)N(CC3(O)CCC3)CCO4)c12 [Compound 667, 2-amino-4-(8-chloro-10-fluoro-2-(((2R,7aS)-2-fluorotetrahydro-1H-pyrrolizin-7a(5H)-yl)methoxy)-4-((1-hydroxycyclobutyl)methyl)-5,6-dihydro-4H-[1,4]oxazepino[5,6,7-de]quinazolin-9-yl)-7-fluorobenzo[b]thiophene-3-carbonitrile]",> 7.00,> 5.30,> 5.30,> 7.00,> 7.00,> 7.00,> 6.30
"CC(C)(O)C1COc2c(Cl)c(-c3ccc(F)c4sc(N)c(C#N)c34)c(F)c3nc(OC[C@@]45CCCN4C[C@H](F)C5)nc(c23)N1CC(F)F (stereo partly drawn) [Compound 755, 2-amino-4-(8-chloro-4-(2,2-difluoroethyl)-10-fluoro-2-(((2R,7aS)-2-fluorotetrahydro-1H-pyrrolizin-7a(5H)-yl)methoxy)-5-(2-hydroxypropan-2-yl)-5,6-dihydro-4H-[1,4]oxazepino[5,6,7-de]quinazolin-9-yl)-7-fluorobenzo[b]thiophene-3-carbonitrile]",> 7.00,> 5.30,> 5.30,> 7.00,> 7.00,> 7.00,> 6.30

# More lines, main results first:
pIC50 [1],pIC50 [3],pIC50 [4],pIC50 [5],pIC50 [6],pIC50 [7],SMILES,pIC50 [2]
> 7.00,> 5.30,> 5.30,> 7.00,> 7.00,> 7.00,"COCC(=O)N1CCC(N2CCOc3c(Cl)c(-c4ccc(F)c5sc(N)c(C#N)c45)c(F)c4nc(OC[C@@]56CCCN5C[C@H](F)C6)nc2c34)C1 (stereo partly drawn) [Compound 1134, 2-amino-4-(8-chloro-10-fluoro-2-(((2R,7aS)-2-fluorotetrahydro-1H-pyrrolizin-7a(5H)-yl)methoxy)-4-(1-(2-methoxyacetyl)pyrrolidin-3-yl)-5,6-dihydro-4H-[1,4]oxazepino[5,6,7-de]quinazolin-9-yl)-7-fluorobenzo[b]thiophene-3-carbonitrile]",> 6.30
> 7.00,> 5.30,> 5.30,> 7.00,> 7.00,> 7.00,"CC(C)(C#N)CN1CCOc2c(Cl)c(-c3ccc(F)c4sc(N)c(C#N)c34)c(F)c3nc(OC[C@@]45CCCN4C[C@H](F)C5)nc1c23 [Compound 1048, 2-amino-4-(8-chloro-4-(2-cyano-2-methylpropyl)-10-fluoro-2-(((2R,7aS)-2-fluorotetrahydro-1H-pyrrolizin-7a(5H)-yl)methoxy)-5,6-dihydro-4H-[1,4]oxazepino[5,6,7-de]quinazolin-9-yl)-7-fluorobenzo[b]thiophene-3-carbonitrile]",> 6.30
> 7.00,> 5.30,> 5.30,> 7.00,> 7.00,> 7.00,"N#Cc1c(N)sc2c(F)ccc(-c3c(Cl)c4c5c(nc(OC[C@@]67CCCN6C[C@H](F)C7)nc5c3F)N(CC(F)F)[C@@H](CNC=O)CO4)c12 [Compound 1028, N-(((5S)-9-(2-amino-3-cyano-7-fluorobenzo[b]thiophen-4-yl)-8-chloro-4-(2,2-difluoroethyl)-10-fluoro-2-(((2R,7aS)-2-fluorotetrahydro-1H-pyrrolizin-7a(5H)-yl)methoxy)-5,6-dihydro-4H-[1,4]oxazepino[5,6,7-de]quinazolin-5-yl)methyl)formamide]",> 6.30
> 7.00,> 5.30,> 5.30,> 7.00,> 7.00,> 7.00,"N#Cc1c(N)sc2c(F)ccc(-c3c(Cl)c4c5c(nc(OC[C@@]67CCCN6C[C@H](F)C7)nc5c3F)N(C3CCCOC3)CCO4)c12 (stereo partly drawn) [Compound 819, 2-amino-4-(8-chloro-10-fluoro-2-(((2R,7aS)-2-fluorotetrahydro-1H-pyrrolizin-7a(5H)-yl)methoxy)-4-(tetrahydro-2H-pyran-3-yl)-5,6-dihydro-4H-[1,4]oxazepino[5,6,7-de]quinazolin-9-yl)-7-fluorobenzo[b]thiophene-3-carbonitrile]",> 6.30
> 7.00,> 5.30,> 5.30,> 7.00,> 7.00,> 7.00,"N#Cc1c(N)sc2c(F)ccc(-c3c(Cl)c4c5c(nc(OC[C@@]67CCCN6C[C@H](F)C7)nc5c3F)N(C3CCn5nccc5C3)CCO4)c12 (stereo partly drawn) [Compound 893, 2-amino-4-(8-chloro-10-fluoro-2-(((2R,7aS)-2-fluorotetrahydro-1H-pyrrolizin-7a(5H)-yl)methoxy)-4-(4,5,6,7-tetrahydropyrazolo[1,5-a]pyridin-5-yl)-5,6-dihydro-4H-[1,4]oxazepino[5,6,7-de]quinazolin-9-yl)-7-fluorobenzo[b]thiophene-3-carbonitrile]",> 6.30
> 7.00,> 5.30,> 5.30,> 7.00,> 7.00,> 7.00,"N#Cc1c(N)sc2c(F)ccc(-c3c(Cl)c4c5c(nc(OC[C@@]67CCCN6C[C@H](F)C7)nc5c3F)N(C3COCC3O)CCO4)c12 (stereo partly drawn) [Compound 874, 2-amino-4-(8-chloro-10-fluoro-2-(((2R,7aS)-2-fluorotetrahydro-1H-pyrrolizin-7a(5H)-yl)methoxy)-4-(4-hydroxytetrahydrofuran-3-yl)-5,6-dihydro-4H-[1,4]oxazepino[5,6,7-de]quinazolin-9-yl)-7-fluorobenzo[b]thiophene-3-carbonitrile]",> 6.30
